Results: patent US10781262B2, “Combination therapy of T cell activating bispecific antigen binding molecules and PD-1 axis binding antagonists” (Hoffmann-La Roche Inc., priority 2014, dated 2020)
Like-named read-outs stand apart in the source and are kept apart here.

Tests used:
[1] = system: recombinant CHO K1 stabile expressing human TIM-3; assay: Cytotoxic activity, CellTiter-Glo Luminescent Cell Viability Assay; format: cell-based; settings: CHO-K1, 72 h; sandwich format: mouse Fcγ antibodies + mouse Fcγ specific Fabs conjugated with PE 24, 3 days
Pfeiffer cells = assay: as above; settings: for IC50: Homo sapiens, Pfeiffer
Experimental: (§1) Treatment ranges from 10 μg/ml to 1 ng/ml in triplicate. All antibodies were used as full length mouse Fcγ versions. For conjugation of the conjugation of the Pseudomonas exotoxin 10 μg/ml of mouse Fcγ fragment specific Fabs conjugated with PE 24 were added and incubated for 3 days at 37° C. Cycloheximide as a known protein synthesis inhibitor in eukaryotes was used as positive control. Viability of treated cells were measured with Promega CellTiter-Glo Luminescent Cell Viability Assay.
(§2) The cytotoxic activity was calculated as follow: Rel. Inhibition [%]=(1−(Esampel−E negative control)/(E positive control−E negative control))*100
(§3) All antibodies were used as full length human IgG1 format including the human Fcgamma part. In this experiment conjugation of the Pseudomonas exotoxin was achieved via human Fcγ fragment specific Fabs conjugated with PE 24 (10 μg/ml) which were added and incubated for 5 days at 37° C.
(§4) The cytotoxic activity was analysed with Promega CellTiter-Glo Luminescent Cell Viability Assay as described above. 1:5 serial dilutions of Fab-fragments of disclosed anti-TIM3 antibodies directly conjugated to PE24 with the highest concentration of 50 μg/ml or appropriate media to untreated cells or non-binding anti-PSMA Fab-PE24 control to untargeted treated cells were incubated with 7.5×10^3 Pfeiffer cells or 2×10^3 RPMI-8226 cells (50 μl/well in […]) for 4 days at 37° C. Treatment ranges from 50 μg/ml to 8 ng/ml in triplicate. Cycloheximide was used as positive control.
(§5) The evaluation of cytotoxic activity of sortase coupled Fab-PE24 constructs of selected disclosed anti-TIM3 antibodies was analysed with Promega CellTiter-Glo Luminescent Cell Viability Assay as described above in Example 28.

RPMI-8226 cells = assay: as above; settings: for IC50: Homo sapiens
Experimental: as §1, §2, §3, §4, §5

CMK = assay: as above; format: cell-based; settings: Fab-PE24 constructs
Text: (§6) Cycloheximide was used as positive control.

Karpas-299 = assay: as above; format: cell-based; settings: Fab-PE24 constructs
Text: as §6

MOLM-13 = assay: as above; format: cell-based; settings: Fab-PE24 constructs
Text: as §6

TF-1 = assay: as above; format: cell-based; settings: Fab-PE24 constructs
Text: as §6

[2] = system: primary CD34+ AML cells from relapsed/refractory patients; assay: Cytotoxic activity on primary AML cells, CellTiter-Glo; format: cell-based, human; settings: Fab-PE24 constructs, 3 days; for IC50: Homo sapiens, 72 h
Text: CD34^+ cells from peripheral blood of relapsed/refractory patients were obtained from AllCells, LLC, Alameda, Calif. […] (see FIG. 31).
as §6

cynomolgus FolR1 = settings: IgG injected for 60 seconds at 500 nM
Experimental: (§7) Binding of FolR1 binders as IgG or in the T-cell bispecific format to different recombinant folate receptors (human FolR1, 2 and 3, murine FolR1 and cynomolgus FolR1; all as Fc fusions) was assessed by surface plasmon resonance (SPR). All SPR experiments were performed on a Biacore T200 at 25° C. with HBS-EP as running buffer (0.01 M HEPES pH 7.4, 0.15 M NaCl, 3 mM EDTA, 0.005% Surfactant P20, Biacore, Freiburg/Germany).
(§8) First the anti-FolR1 IgGs were analyzed by single injections (Table 1) to characterize their crossreactivity (to human, murine and cyno FolR1) and specificity (to human FolR1, human FolR2, human FolR3). Recombinant biotinylated monomeric Fc fusions of human, cynomolgus and murine Folate Receptor 1 (FolR1-Fc) or human Folate Receptor 2 and 3 (FolR2-Fc, FolR3-Fc) were directly coupled on a SA chip using the standard coupling instruction (Biacore, Freiburg/Germany). The immobilization level was about 300-400 RU. The IgGs were injected for 60 seconds at a concentration of 500 nM.

human FolR1 = human FolR1 (Homo sapiens, UniProt P15328); settings: IgG injected for 60 seconds at 500 nM
Experimental: as §7, §8

human FolR2 = human FolR2 (Homo sapiens, UniProt P14207); settings: IgG injected for 60 seconds at 500 nM
Experimental: as §7, §8

human FolR3 = human FolR3 (Homo sapiens, UniProt P41439); settings: IgG injected for 60 seconds at 500 nM
Experimental: as §7, §8

murine FolR1 = murine FolR1 (Mus musculus, UniProt P35846); settings: IgG injected for 60 seconds at 500 nM
Experimental: as §7, §8

[3] = target: T1, human Folate Receptor 1 (FolR1-Fc) (Homo sapiens, UniProt P15328); assay: SPR avidity to Folate Receptor 1 (bivalent binding); settings: bivalent binding (avidity), ligand huFolR1
T1 construct: the extracellular domain of the antigen linked to the hinge region of Fc-knob; made in house; host or cells: HEK293 EBNA
Text: The immobilization level was about 300-400 RU. […] The dissociation was monitored for 600 seconds.

[4] = system: cynomolgus Folate Receptor 1 (FolR1-Fc); settings: bivalent binding (avidity), ligand cyFolR1
Experimental: as §7
The avidity of the interaction between the anti-FolR1 IgGs or T cell bispecifics and the recombinant folate receptors was determined as described below (Table 9). Recombinant biotinylated monomeric Fc fusions of human, cynomolgus and murine Folate Receptor 1 (FolR1-Fc) were directly coupled on a SA chip using the standard coupling instruction (Biacore, Freiburg/Germany). The immobilization level was about 300-400 RU. The anti-FolR1 IgGs or T cell bispecifics were passed at a concentration range from 2.1 to 500 nM with a flow of 30 μL/minutes through the flow cells over 180 seconds. The dissociation was monitored for 600 seconds. […] The binding curves resulting from the bivalent binding of the IgGs or T cell bispecifics were approximated to a 1:1 Langmuir binding and fitted with that model (which is not correct, but gives an idea of the avidity). The apparent avidity constants for the interactions were derived from the rate constants of the fitting using the Bia Evaluation software (GE Healthcare).

[5] = target: cyno Folate Receptor 1 Fc fusion; settings: monovalent binding (affinity), analyte cyFolR1
Experimental: as §7
(§9) For affinity measurement, direct coupling of around 6000-7000 resonance units (RU) of the anti-human Fab specific antibody (Fab capture kit, GE Healthcare) was performed on a CM5 chip at pH 5.0 using the standard amine coupling kit (GE Healthcare). Anti-FolR1 IgGs or T cell bispecifics were captured at 20 nM with a flow rate of 10 μl/min for 20 or 40 sec, the reference flow cell was left without capture. Dilution series (6.17 to 500 nM or 12.35 to 3000 nM) of human or cyno Folate Receptor 1 Fc fusion were passed on all flow cells at 30 μl/min for 120 or 240 sec to record the association phase. The dissociation phase was monitored for 240 s and triggered by switching from the sample solution to HBS-EP. The chip surface was regenerated after every cycle using a double injection of 60 sec 10 mM Glycine-HCl pH 2.1 or pH 1.5. Bulk refractive index differences were corrected for by subtracting the response obtained on the reference flow cell 1. The affinity constants for the interactions were derived from the rate constants by fitting to a 1:1 Langmuir binding using the Bia Evaluation software (GE Healthcare).

[6] = target: human Folate Receptor 1 Fc fusion (Homo sapiens, UniProt P15328); settings: monovalent binding (affinity), analyte huFolR1
Experimental: as §7, §9

[7] = Fab-PE24 construct vs. total IgG-Amatoxin conjugate
[8] = sortase coupled Fab-PE24 constructs
[9] = human IgG1 format + human Fcγ specific Fabs conjugated with PE 24, 5 days

Sequence of cynomolgus Folate Receptor 1 (FolR1-Fc) (as listed by the source): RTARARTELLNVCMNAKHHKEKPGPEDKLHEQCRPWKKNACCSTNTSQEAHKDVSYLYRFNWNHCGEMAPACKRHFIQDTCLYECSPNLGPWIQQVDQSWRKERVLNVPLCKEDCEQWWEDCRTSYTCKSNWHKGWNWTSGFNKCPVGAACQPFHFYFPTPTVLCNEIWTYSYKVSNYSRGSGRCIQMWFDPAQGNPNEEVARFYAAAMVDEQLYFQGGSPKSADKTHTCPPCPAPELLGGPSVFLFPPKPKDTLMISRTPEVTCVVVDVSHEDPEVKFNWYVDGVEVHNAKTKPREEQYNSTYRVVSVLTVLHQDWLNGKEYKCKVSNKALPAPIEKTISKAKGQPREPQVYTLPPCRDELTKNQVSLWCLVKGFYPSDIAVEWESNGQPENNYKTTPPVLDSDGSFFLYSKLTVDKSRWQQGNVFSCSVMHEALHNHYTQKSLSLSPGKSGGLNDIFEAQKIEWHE
Sequence of cynomolgus Folate Receptor 1 (FolR1-Fc) (as listed by the source partner): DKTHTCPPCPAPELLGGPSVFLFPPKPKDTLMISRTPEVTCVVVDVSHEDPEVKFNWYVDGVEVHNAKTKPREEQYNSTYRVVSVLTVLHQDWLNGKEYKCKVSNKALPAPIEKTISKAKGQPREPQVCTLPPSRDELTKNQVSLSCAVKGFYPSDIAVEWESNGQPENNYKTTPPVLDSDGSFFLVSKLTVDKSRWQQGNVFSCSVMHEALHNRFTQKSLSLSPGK
Sequence of cyno Folate Receptor 1 Fc fusion (as listed by the source): as the sequence (as listed by the source) above
Sequence of cyno Folate Receptor 1 Fc fusion (P01857 104-330 isoform P01857-1 Y232C/T249S/L251A/Y290V/H318R/Y319F partner): as the sequence (as listed by the source partner) above
Sequence of human Folate Receptor 1 Fc fusion (P15328 with tags, fused parts or gaps): as the sequence (as listed by the source) above, with T2I, R4W, K37R, P146A, Y171H counted along it
Sequence of human Folate Receptor 1 Fc fusion (P01857 104-330 isoform P01857-1 Y232C/T249S/L251A/Y290V/H318R/Y319F partner): as the sequence (as listed by the source partner) above
T1 sequence (P15328 with tags, fused parts or gaps): as the sequence (as listed by the source) above, with T2I, R4W, K37R, P146A, Y171H counted along it
T1 sequence (P01857 104-330 isoform P01857-1 Y232C/T249S/L251A/Y290V/H318R/Y319F partner): as the sequence (as listed by the source partner) above
Sequence of human FolR3 (P41439 with tags, fused parts or gaps): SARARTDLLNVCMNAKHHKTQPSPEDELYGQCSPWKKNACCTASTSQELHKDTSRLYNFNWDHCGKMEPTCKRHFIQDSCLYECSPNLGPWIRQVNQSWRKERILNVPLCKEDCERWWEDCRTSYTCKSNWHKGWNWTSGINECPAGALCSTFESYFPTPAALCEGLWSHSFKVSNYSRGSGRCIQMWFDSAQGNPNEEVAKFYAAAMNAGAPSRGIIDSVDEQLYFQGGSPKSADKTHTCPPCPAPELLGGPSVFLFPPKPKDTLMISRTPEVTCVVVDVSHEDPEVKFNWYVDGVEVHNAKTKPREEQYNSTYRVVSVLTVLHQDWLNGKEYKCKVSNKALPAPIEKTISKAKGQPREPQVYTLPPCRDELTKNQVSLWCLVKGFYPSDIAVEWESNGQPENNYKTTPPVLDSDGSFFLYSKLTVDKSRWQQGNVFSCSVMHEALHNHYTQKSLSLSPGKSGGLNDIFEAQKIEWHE
Sequence of human FolR3 (P01857 104-330 isoform P01857-1 Y232C/T249S/L251A/Y290V/H318R/Y319F partner): as the sequence (as listed by the source partner) above
Sequence of murine FolR1 (P35846 with tags, fused parts or gaps): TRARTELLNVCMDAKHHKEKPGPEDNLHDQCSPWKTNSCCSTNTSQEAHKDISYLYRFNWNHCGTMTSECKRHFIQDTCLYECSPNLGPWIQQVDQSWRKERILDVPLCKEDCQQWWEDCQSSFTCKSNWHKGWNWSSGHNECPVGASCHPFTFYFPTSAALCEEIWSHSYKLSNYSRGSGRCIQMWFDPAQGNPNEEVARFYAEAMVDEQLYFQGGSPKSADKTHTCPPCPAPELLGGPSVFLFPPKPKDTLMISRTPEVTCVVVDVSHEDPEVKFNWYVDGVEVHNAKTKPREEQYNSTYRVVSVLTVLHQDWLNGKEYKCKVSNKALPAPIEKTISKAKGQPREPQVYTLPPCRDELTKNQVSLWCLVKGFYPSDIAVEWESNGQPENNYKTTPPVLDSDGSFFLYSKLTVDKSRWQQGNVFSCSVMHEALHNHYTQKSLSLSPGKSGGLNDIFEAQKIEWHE
Sequence of murine FolR1 (as listed by the source partner): as the sequence (as listed by the source partner) above
Sequence of human FolR1 (P15328 with tags, fused parts or gaps): as the sequence (as listed by the source) above, with T2I, R4W, K37R, P146A, Y171H counted along it
Sequence of human FolR1 (P01857 104-330 isoform P01857-1 Y232C/T249S/L251A/Y290V/H318R/Y319F partner): as the sequence (as listed by the source partner) above
Sequence of human FolR2 (P14207 with tags, fused parts or gaps): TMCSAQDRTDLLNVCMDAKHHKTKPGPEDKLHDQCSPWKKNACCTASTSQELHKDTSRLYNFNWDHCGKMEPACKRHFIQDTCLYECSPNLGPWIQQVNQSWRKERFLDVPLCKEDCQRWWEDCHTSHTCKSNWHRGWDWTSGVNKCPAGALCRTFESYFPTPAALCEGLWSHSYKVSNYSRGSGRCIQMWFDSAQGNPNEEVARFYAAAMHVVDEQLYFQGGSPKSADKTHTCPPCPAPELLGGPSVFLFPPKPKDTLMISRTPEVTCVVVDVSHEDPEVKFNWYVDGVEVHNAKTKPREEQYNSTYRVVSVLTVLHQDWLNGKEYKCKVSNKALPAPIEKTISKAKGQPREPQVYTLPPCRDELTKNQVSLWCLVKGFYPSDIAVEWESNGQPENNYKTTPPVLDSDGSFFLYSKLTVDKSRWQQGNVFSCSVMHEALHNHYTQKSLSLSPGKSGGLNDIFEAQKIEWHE
Sequence of human FolR2 (P01857 104-330 isoform P01857-1 Y232C/T249S/L251A/Y290V/H318R/Y319F partner): as the sequence (as listed by the source partner) above
Sequence of cynomolgus FolR1 (as listed by the source): as the sequence (as listed by the source) above

## C[C@@H]1C[C@@H]([C@H](O)CC2CC(=O)NC(=O)C2)C(=O)[C@@H](C)C1 [Cycloheximide]
[1]
  IC50: 0.135 µM
Pfeiffer cells; [7]
  Max. killing: 100 [%]
  IC50: 0.163 µM
Pfeiffer cells; 72 h, sandwich format: mouse Fcγ antibodies + mouse Fcγ specific Fabs conjugated with PE 24, 3 days
  IC50: 0.181 µM
Pfeiffer cells; 120 h, read-out: Rel. IC50, human IgG1 format + human Fcγ specific Fabs conjugated with PE 24, 5 days
  IC50: 0.271 µM
Pfeiffer cells; [8]
  IC50: 0.271 µM
  Max. killing: 100 [%]
Pfeiffer cells; [9]
  Max. killing: 100 [%]
RPMI-8226 cells; Fab-PE24 constructs, 4 days
  Max. killing: 100 [%]
RPMI-8226 cells; RPMI-8226
  IC50: 0.153 µM
RPMI-8226 cells; RPMI-8226, 96 h
  IC50: 0.281 µM
RPMI-8226 cells; [9]
  Max. killing: 100 [%]
RPMI-8226 cells; [8]
  Max. killing: 100 [%]
CMK
  Max. killing: 100 [%]
CMK; Homo sapiens, CMK
  IC50: 0.149 µM
Karpas-299
  Max. killing: 100 [%]
Karpas-299; Homo sapiens, KARPAS-299
  IC50: 0.113 µM
MOLM-13
  Max. killing: 100 [%]
MOLM-13; Homo sapiens, MOLM-13
  IC50: 0.156 µM
TF-1
  Max. killing: 100 [%]
TF-1; Homo sapiens, TF-1
  IC50: 0.207 µM
[2]; D1, AML CD34+ PB0136 cells
  Max. killing: 100 [%]
  IC50: 0.212 µM
[2]; D2, AML CD34+ PB0142 cells
  Max. killing: 100 [%]
  IC50: 0.262 µM
[2]; D3, AML CD34+ PB0135 cells
  Max. killing: 100 [%]
  IC50: 0.121 µM
[2]; D4, AML CD34+ PB0193 cells
  Max. killing: 100 [%]
  IC50: 0.208 µM

## Farletuzumab [reference compound]
Cynomolgus FolR1
  Binding to cyFolR1: +
Human FolR1
  Binding to huFolR1: +
Human FolR2
  Binding to huFolR2: −
Human FolR3
  Binding to huFolR3: −
Murine FolR1
  Binding to muFolR1: −
[3]
  ka: 1.23e+06 M⁻¹ s⁻¹
  kd: 0.0009 s⁻¹
[4]
  ka: 1.33e+06 M⁻¹ s⁻¹
  kd: 0.000868 s⁻¹
[4]; read-out: Apparent KD, approximated 1:1 Langmuir fit
  Kd: 0.00065 µM
[5]
  Kd: 0.0673 µM
  ka: 553000 M⁻¹ s⁻¹
  kd: 0.0373 s⁻¹
[6]
  ka: 417000 M⁻¹ s⁻¹
  kd: 0.023 s⁻¹
